Measured values reported in US6855549B1, “Methods and compositions for increasing the infectivity of gene transfer vectors” (The University of Iowa Research Foundation, priority 1998, dated 2005).

Experiments:
[1] = test system: differentiated human airway epithelia; assay: Transepithelial resistance of KGF-treated airway epithelia with Ca2+ chelators; type: cell-based; settings: 6 mM chelator, isotonic (220 mmol/kg)
Procedure: Differentiated epithelial cells were treated with 100 ng/ml KGF for 24 hr. Different concentrations of each calcium chelator in HEPES/HCl (pH 7.4) or in isotonic HEPES/saline (pH 7.4) buffer were mixed with vector buffer and applied to the apical surface for times as specified (Wang et al., 1998). Transepithelial resistance was measured with an Ohmmeter (EVOM; World Precision Instruments, Inc. Sarasota, Fla.) by adding cell culture media to the apical surface and the values were compared to untreated controls.
To understand whether the tonicity of the vector solution affects epithelial permeability and gene transfer efficiency, hypotonic (40 mmol/kg) or isotonic (220 mmol/kg) solutions of 6 mM EGTA, EDTA or BAPTA were added to the MuLV vector buffer and applied to the apical surface of differentiated airway epithelial cells pre-treated with KGF. At specific time intervals, transepithelial resistance (R1) was measured using an Ohmmeter.

[2] = test system: lung; assay: Lung morphology (H & E) 1 wk after EGTA/water instillation; type: in vivo, rat
Procedure: Preliminary studies were performed in rats to test the feasibility of using hypotonic solutions with EGTA to increase transepithelial permeability in vivo. 3 wk old rats were tracheotomized and a small caliber PE catheter inserted into the left lobe of the lung. 100 μl of 3 or 12 mM EGTA in water or PBS was mixed with […] fluorescent beads (a marker for viral particles) and instilled into the lungs. One hour later the animals were sacrificed and lung, tissue sections examined under fluorescence microscopy to determine if the fluorescent beads penetrated the epithelial layer. In the PBS control animal, fluorescent particles were only noted in the airway lunen. […] It also was asked if animals treated with EGTA/H2O developed changes in lung morphology. Animals received PBS or 12, 60, or 120 mM EGTA/water into the left lobe of the lung and 1 wk later were sacrificed and H & E stained lung tissues examined.

With `O=C(O)CN(CCOCCOCCN(CC(=O)O)CC(=O)O)CC(=O)O` [EGTA] the “time required to decrease R1 to ~20% of the controls” value [1] was “Sixty”, the lung morphology ([2]; 120 mM EGTA) was “thickening of the interstitial space was noted” and the lung morphology ([2]; 12 or 60 mM EGTA/water) was “morphology similar to the control”.
